Here are results for 30 compounds from US10385022B2, “3-amino-pyridines as GPBAR1 agonists” (HOFFMANN-LA ROCHE INC., priority 2011, dated 2019).

The target in the test is human GPBAR1 receptor (Homo sapiens (Human), UniProt Q8TDU6). The experiment in a line: functional cAMP assay in CHO-dhfr(minus) cells expressing human GPBAR1 receptors. The settings on record: CHO-dhfr(minus) cells expressing human GPBAR1, 30 min at 30° C. It is filed as cell-based. In short, it runs like this:
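Functional cAMP responses in a human GPBAR1-transfected CHO-dhfr- clone, picked using lithocholic acid as agonist, gave the EC50 values. Parallel testing in untransfected CHO cells served as a specificity control.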
In general terms: Cyclic AMP is a second messenger, typically raised through Gs and lowered through Gi signalling.

The EC50 is the concentration that produces a half-maximal response. A low value points to a more potent agent.

human GPBAR1 receptor, sequence (Q8TDU6 whole entry): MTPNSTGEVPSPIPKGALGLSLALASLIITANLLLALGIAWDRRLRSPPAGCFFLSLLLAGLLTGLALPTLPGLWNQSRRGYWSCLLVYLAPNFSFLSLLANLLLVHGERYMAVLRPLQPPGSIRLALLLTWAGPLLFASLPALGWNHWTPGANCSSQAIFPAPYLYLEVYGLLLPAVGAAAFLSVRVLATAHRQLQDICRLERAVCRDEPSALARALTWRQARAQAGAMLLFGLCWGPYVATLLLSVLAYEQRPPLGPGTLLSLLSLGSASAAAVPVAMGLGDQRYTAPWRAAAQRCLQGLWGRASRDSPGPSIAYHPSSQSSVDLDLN

For `COc1cc(F)ccc1-c1ccncc1N(C)C(=O)c1cc(CCC(N)=O)cc(C(F)(F)F)c1` [Example 281, 3-(2-Carbamoyl-ethyl)-N-[4-(4-fluoro-2-methoxy-phenyl)-pyridin-3-yl]-N-methyl-5-trifluoromethyl-benzamide], it took 574 nM to reach a half-maximal effect (EC50).

Take `COc1cc(F)ccc1-c1ccncc1N(C)C(=O)c1cc(C(F)(F)F)cc(S(=O)(=O)C2CN(S(C)(=O)=O)C2)c1` [Example 282, N-[4-(4-Fluoro-2-methoxy-phenyl)-pyridin-3-yl]-3-(1-methanesulfonyl-azetidine-3-sulfonyl)-N-methyl-5-trifluoromethyl-benzamide]: the EC50 was found to be 69 nM.

`COc1cc(F)ccc1-c1ccncc1N(Cc1ncc(C)o1)C(=O)c1cc(C(F)(F)F)cc(S(C)(=O)=O)c1` [Example 283, N-[4-(4-Fluoro-2-methoxy-phenyl)-pyridin-3-yl]-3-methanesulfonyl-N-(5-methyl-oxazol-2-ylmethyl)-5-trifluoromethyl-benzamide]: the EC50 turned out to be 2200 nM.

Compound `COc1cc(-c2ccncc2N(C)C(=O)c2cc(C(F)(F)F)cc(S(C)(=O)=O)c2)c(F)cc1F` [Example 284, N-[4-(2,4-Difluoro-5-methoxy-phenyl)-pyridin-3-yl]-3-methanesulfonyl-N-methyl-5-trifluoromethyl-benzamide] registered an EC50 of 353 nM.

`COc1ccc(F)c(-c2ccncc2N(C)C(=O)c2cc(C(F)(F)F)cc(S(C)(=O)=O)c2)c1F` [Example 285, N-[4-(2,6-Difluoro-3-methoxy-phenyl)-pyridin-3-yl]-3-methanesulfonyl-N-methyl-5-trifluoromethyl-benzamide] yielded an EC50 of 2900 nM.

Compound `CS(=O)(=O)c1cc(C(=O)N(CC#N)c2cnccc2-c2ccccc2Cl)cc(C(F)(F)F)c1` [Example 286, N-[4-(2-Chloro-phenyl)-pyridin-3-yl]-N-cyanomethyl-3-methanesulfonyl-5-trifluoromethyl-benzamide] had an EC50 of 379 nM.

The compound `CS(=O)(=O)c1cc(C(=O)N(CC(F)(F)F)c2cnccc2-c2ccccc2Cl)cc(C(F)(F)F)c1` [Example 287, N-[4-(2-Chloro-phenyl)-pyridin-3-yl]-3-methanesulfonyl-N-(2,2,2-trifluoro-ethyl)-5-trifluoromethyl-benzamide] came in with an EC50 of 539 nM.

For the compound `CS(=O)(=O)CCN(C(=O)c1cc(C(F)(F)F)cc(S(C)(=O)=O)c1)c1cnccc1-c1ccccc1Cl` [Example 288, N-[4-(2-Chloro-phenyl)-pyridin-3-yl]-3-methanesulfonyl-N-(2-methanesulfonyl-ethyl)-5-trifluoromethyl-benzamide], the EC50 came to 1480 nM.

In the case of `COC(=O)CN(C(=O)c1cc(C(F)(F)F)cc(S(C)(=O)=O)c1)c1cnccc1-c1ccccc1Cl` [Example 289, [[4-(2-Chloro-phenyl)-pyridin-3-yl]-(3-methanesulfonyl-5-trifluoromethyl-benzoyl)-amino]-acetic acid methyl ester], the EC50 was 275 nM.

On to `COc1cc(F)ccc1-c1ccncc1N(C)C(=O)c1cc(C(F)(F)F)cc(S(=O)(=O)C2CN(S(N)(=O)=O)C2)c1` [Example 292, N-[4-(4-Fluoro-2-methoxy-phenyl)-pyridin-3-yl]-N-methyl-3-(1-sulfamoyl-azetidine-3-sulfonyl)-5-trifluoromethyl-benzamide], for which the EC50 turned out to be 88 nM.

The compound `COc1cc(F)ccc1-c1ccncc1N(Cc1nc(C)co1)C(=O)c1cc(C(F)(F)F)cc(S(C)(=O)=O)c1` [Example 293, N-[4-(4-Fluoro-2-methoxy-phenyl)-pyridin-3-yl]-3-methanesulfonyl-N-(4-methyl-oxazol-2-ylmethyl)-5-trifiuoromethyl-benzamide] registered an EC50 of 2460 nM.

On to `CS(=O)(=O)c1cc(C(=O)N(Cc2ncco2)c2cnccc2-c2ccccc2Cl)cc(C(F)(F)F)c1` [Example 294, N-[4-(2-Chloro-phenyl)-pyridin-3-yl]-3-methanesulfonyl-N-oxazol-2-ylmethyl-5-trifluoromethyl-benzamide], for which the response was half-maximal at 42 nM (EC50).

Take `Cc1c(F)cccc1-c1ccncc1N(C)C(=O)c1cc(C(F)(F)F)cc(S(C)(=O)=O)c1` [Example 295, N-[4-(3-Fluoro-2-methyl-phenyl)-pyridin-3-yl]-3-methanesulfonyl-N-methyl-5-trifluoromethyl-benzamide]: the EC50 worked out at 445 nM.

Consider `CS(=O)(=O)c1cc(C(=O)N(CC(N)=O)c2cnccc2-c2ccccc2Cl)cc(C(F)(F)F)c1` [Example 296, N-Carbamoylmethyl-N-[4-(2-chloro-phenyl)-pyridin-3-yl]-3-methanesulfonyl-5-trifluoromethyl-benzamide], for which the EC50 amounted to 1340 nM.

The compound `COC(=O)CN(C(=O)c1cc(C(F)(F)F)cc(S(C)(=O)=O)c1)c1cnccc1-c1cc(F)ccc1OC` [Example 297, [[4-(5-Fluoro-2-methoxy-phenyl)-pyridin-3-yl]-(3-methanesulfonyl-5-trifluoromethyl-benzoyl)-amino]-acetic acid methyl ester] registered an EC50 of 521 nM.

`CS(=O)(=O)c1cc(C(=O)N(CC(F)(F)F)c2cnccc2-c2ccccc2OC(F)(F)F)cc(C(F)(F)F)c1` [Example 298, 3-Methanesulfonyl-N-(2,2,2-trifluoro-ethyl)-N-[4-(2-trifluoromethoxy-phenyl)-pyridin-3-yl]-5-trifluoromethyl-benzamide] gave an EC50 of 788 nM.

On to `COc1cc(F)ccc1-c1ccncc1N(C[C@@H]1CCCOC1)C(=O)c1cc(C(F)(F)F)cc(S(C)(=O)=O)c1` [Example 299, (+)-N-[4-(4-Fluoro-2-methoxy-phenyl)-pyridin-3-yl]-3-methanesulfonyl-N-[1-(tetrahydro-pyran-3-yl)methyl]-5-trifluoromethyl-benzamide], for which the EC50 came to 952 nM.

For `Cc1cc(-c2ccccc2Cl)c(N(CC(F)(F)F)C(=O)c2cc(C(F)(F)F)cc(S(C)(=O)=O)c2)cn1` [Example 300, N-[4-(2-Chloro-phenyl)-6-methyl-pyridin-3-yl]-3-methanesulfonyl-N-(2,2,2-trifluoro-ethyl)-5-trifluoromethyl-benzamide], the response was half-maximal at 831 nM (EC50).

The compound `COc1cc(F)ccc1-c1cc(C)ncc1N(C)C(=O)c1cc(Cl)cc(S(C)(=O)=O)c1` [Example 301, 3-Chloro-N-[4-(4-fluoro-2-methoxy-phenyl)-6-methyl-pyridin-3-yl]-5-methanesulfonyl-N-methyl-benzamide] had a concentration for a half-maximal effect (EC50) of 219 nM.

`COc1cc(F)ccc1-c1cc(C)ncc1N(C)C(=O)c1cc(C(F)(F)F)cc(S(=O)(=O)N2CCOCC2)c1` [Example 302, N-[4-(4-Fluoro-2-methoxy-phenyl)-6-methyl-pyridin-3-yl]-N-methyl-3-(morpholine-4-sulfonyl)-5-trifluoromethyl-benzamide]: the EC50 is > 10000 nM.

Compound `COc1cc(F)ccc1-c1cc(C)ncc1N(C)C(=O)c1cc(Br)cc(C(F)(F)F)c1` [Example 303, 3-Bromo-N-[4-(4-fluoro-2-methoxy-phenyl)-6-methyl-pyridin-3-yl]-N-methyl-5-trifluoromethyl-benzamide] came in with an EC50 of 18 nM.

In turn, `COc1cc(F)ccc1-c1ccncc1N(C)C(=O)c1cc(C(F)(F)F)cc(S(=O)(=O)N2CCS(=O)(=O)CC2)c1` [Example 304, 3-(1,1-Dioxo-thiomorpholine-4-sulfonyl)-N-[4-(4-fluoro-2-methoxy-phenyl)-pyridin-3-yl]-N-methyl-5-trifluoromethyl-benzamide] came in with an EC50 of 15 nM.

In the case of `COc1cc(F)ccc1-c1ccncc1N(C)C(=O)c1cc(C(F)(F)F)cc(S(=O)(=O)N2CC3(COC3)C2)c1` [Example 305, N-[4-(4-Fluoro-2-methoxy-phenyl)-pyridin-3-yl]-N-methyl-3-(2-oxa-6-aza-spiro[3.3]heptane-6-sulfonyl)-5-trifluoromethyl-benzamide], it took 5 nM to reach a half-maximal effect (EC50).

`COc1cc(F)ccc1-c1ccncc1N(CCS(C)(=O)=O)C(=O)c1cc(C(F)(F)F)cc(S(C)(=O)=O)c1` [Example 306, N-[4-(4-Fluoro-2-methoxy-phenyl)-pyridin-3-yl]-3-methanesulfonyl-N-(2-methanesulfonyl-ethyl)-5-trifluoromethyl-benzamide] yielded an EC50 of 190 nM.

Regarding `COc1cc(F)ccc1-c1cc(C)ncc1N(CC(F)(F)F)C(=O)c1cc(C(F)(F)F)cc(S(C)(=O)=O)c1` [Example 307, N-[4-(4-Fluoro-2-methoxy-phenyl)-6-methyl-pyridin-3-yl]-3-methanesulfonyl-N-(2,2,2-trifluoro-ethyl)-5-trifluoromethyl-benzamide], the EC50 worked out at 300 nM.

In the case of `CS(=O)(=O)CCN(C(=O)c1cc(C(F)(F)F)cc(S(C)(=O)=O)c1)c1cnccc1-c1ccccc1OC(F)(F)F` [Example 308, 3-Methanesulfonyl-N-(2-methanesulfonyl-ethyl)-N-[4-(2-trifluoromethoxy-phenyl)-pyridin-3-yl]-5-trifluoromethyl-benzamide], the EC50 stood at 936 nM.

The compound `COc1ccc(F)cc1-c1ccncc1N(CC(N)=O)C(=O)c1cc(C(F)(F)F)cc(S(C)(=O)=O)c1` [Example 309, N-Carbamoylmethyl-N-[4-(5-fluoro-2-methoxy-phenyl)-pyridin-3-yl]-3-methanesulfonyl-5-trifluoromethyl-benzamide] came in with an EC50 of 273 nM.

On to `COc1cc(F)ccc1-c1cc(C)ncc1N(C)C(=O)c1cc(SC2COC2)cc(C(F)(F)F)c1` [Example 310, N-[4-(4-Fluoro-2-methoxy-phenyl)-6-methyl-pyridin-3-yl]-N-methyl-3-(oxetan-3-ylsulfanyl)-5-trifluoromethyl-benzamide], for which the EC50 came to 41 nM.

Take `CS(=O)(=O)c1cc(C(=O)N(CC#N)c2cnccc2-c2ccccc2OC(F)(F)F)cc(C(F)(F)F)c1` [Example 311, N-Cyanomethyl-3-methanesulfonyl-N-[4-(2-trifluoromethoxy-phenyl)-pyridin-3-yl]-5-trifluoromethyl-benzamide]: the EC50 is 81 nM.

`COc1cc(F)ccc1-c1cc(C)ncc1N(C)C(=O)c1cc(SCCCCC(=O)O)cc(C(F)(F)F)c1` [Example 312, 5-(3-{[4-(4-Fluoro-2-methoxy-phenyl)-6-methyl-pyridin-3-yl]-methyl-carbamoyl}-5-trifluoromethyl-phenylsulfanyl)-pentanoic acid]: a half-maximal response (EC50) required 2420 nM.
